Where “and” joins values, the source holds several entries; their conditions need not be identical. Equal entries are not always repeated. Where two headings read alike, the source gives them in different places.

The target of series [1] is T1, Aurora A (Homo sapiens, UniProt O14965).
T1 construct: N-terminal GST fusion with full length Aurora A (1-403 amino acids); purchased Carna Biosciences 05-101
T1 sequence (O14965 1-403): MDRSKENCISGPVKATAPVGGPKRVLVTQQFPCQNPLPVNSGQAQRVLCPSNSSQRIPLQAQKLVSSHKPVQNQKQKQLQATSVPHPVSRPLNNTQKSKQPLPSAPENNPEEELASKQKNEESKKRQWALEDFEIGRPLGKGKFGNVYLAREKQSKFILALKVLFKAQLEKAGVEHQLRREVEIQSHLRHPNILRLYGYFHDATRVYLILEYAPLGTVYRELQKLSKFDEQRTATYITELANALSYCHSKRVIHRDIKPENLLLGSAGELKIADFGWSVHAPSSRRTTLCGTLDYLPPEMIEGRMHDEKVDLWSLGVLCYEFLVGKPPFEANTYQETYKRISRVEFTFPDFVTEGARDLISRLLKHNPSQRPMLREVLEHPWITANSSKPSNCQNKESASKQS
As to the kind of experiment: Aurora A enzyme assay (Caliper LC3000 mobility shift). It is filed as biochemical. Summed up: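 Full-length N-terminal GST-Aurora A (0.067 ng/µl) with 15 µM ATP and 1 µM FITC-LRRASLG peptide in 100 mM HEPES pH 7.5, 1 mM MgCl2, 1 mM DTT, 0.015% Brij-35, 90 min at 25 °C, EDTA-stopped. Off-chip mobility shift measured percent substrate conversion; IC50 from sigmoidal dose-response fit.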

Series [2] has as its target Aurora B (Homo sapiens, UniProt Q96GD4). In words: Aurora B enzyme assay (Caliper). It counts as biochemical. Summed up: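 Kinase activity was measured by microfluidic mobility-shift separation of phosphorylated and unphosphorylated fluorescently labelled substrate peptide at the end of the enzymatic reaction. Product and substrate were resolved by their charge difference and detected by fluorescence.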

In series [3] the test system is A549. In words: Cellular activity A549. It counts as cell-based. Conditions: Homo sapiens. Summed up:
(§1)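 Cultured cells were exposed to compounds at various concentrations for roughly one hour to one week, enough to induce cell death or inhibit migration. Viable cells remaining after treatment were then counted.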

Series [4] relates to MiaPaca2. As to the kind of experiment: Cellular activity MiaPaca2. It counts as cell-based. Conditions: Homo sapiens, MIA PaCa-2. Summed up: as §1
For series [5], the target named is kinases (not incl. Aurora). As to the kind of experiment: Kinase inhibition profile (not incl. Aurora). It is filed as biochemical. To be noted: at 1 μM; hit means >79% inhibition. On the procedure:
The Aurora and other kinase assays described here were performed on two Caliper Life Sciences systems, the LC3000 and the Desktop Profiler. These provide data on enzyme activity via measurement of the relative amounts of phosphorylated or unphosphorylated fluorescently labelled substrate peptide at the end of an enzymatic reaction. These different states of peptide are resolved by applying a potential difference across the sample. The presence of a charged phosphate group on the product (as opposed to the substrate) causes a different peptide mobility between the two peptides. This is visualized by excitation of a fluorescent label on the substrate and product peptides and represented as peaks within the analysis software.
The Desktop Profiler utilizes the same principal as the LC 3000 for calculating percentage conversion of a substrate to product. Caliper Life Sciences provided proprietary flash frozen pre-made 384 well plates containing selected kinases. Each column in the 384 well plate contained a particular selected kinase. A second plate, the ‘substrate plate’ contained a mix of fluorescently labeled peptide substrate and ATP. These were arranged in columns so that transfer for substrate plate to enzyme plate provided the correct enzyme with the correct substrate/ATP concentration.
Compounds were added to a thawed enzyme plate in the desired format, in single concentrations. Reactions were initiated by transfer of the ubstrate/ATP mix from the substrate plate. The enzyme plate was incubated for 90 mins at 25 °C. The reaction was stopped by addition of […] of Stop Buffer (100 mM HEPES pH 7.5, 0.015% Brij-35, 10 mM EDTA (Sigma, E7889)).
Plates were read in a manner identical to that of the LC3000, and the ratio between substrate and product peaks provided the activity of the enzyme in that well. This was best represented by a plate heat map which colors each well by percent inhibition as compared to positive and negative controls (no inhibitors and no ATP respectively).

Sequence of Aurora B (Q96GD4 whole entry): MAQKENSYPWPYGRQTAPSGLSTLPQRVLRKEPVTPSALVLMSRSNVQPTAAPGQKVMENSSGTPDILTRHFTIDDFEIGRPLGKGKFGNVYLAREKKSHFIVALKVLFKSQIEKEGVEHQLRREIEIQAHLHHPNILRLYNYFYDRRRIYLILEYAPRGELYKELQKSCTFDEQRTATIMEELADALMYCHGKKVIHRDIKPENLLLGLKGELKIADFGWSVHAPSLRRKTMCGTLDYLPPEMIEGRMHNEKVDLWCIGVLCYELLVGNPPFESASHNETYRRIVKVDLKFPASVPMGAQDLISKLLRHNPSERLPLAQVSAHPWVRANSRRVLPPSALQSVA

The term IC50 denotes the midpoint of a concentration-inhibition curve. As for `CN1CCN(c2ccc3cc2CC(=O)N[C@@H]2C[C@@H]4C[C@H]2[C@@H](Nc2nc(ncc2F)N3)[C@H]4C(N)=O)CC1`, the ring closure, yield of all isomers (from CN1CCN(c2ccc(N)cc2CC(=O)N[C@@H]2C[C@@H]3C[C@H]2[C@@H](Nc2nc(Cl)ncc2F)[C@H]3C(N)=O)CC1, snar bond) is 5.3%. Also, the IC50 in series [1] and in series [2] was 1 to 100 nM each time.
Take `NC(=O)[C@H]1[C@@H]2C[C@H]3CNC(=O)Cc4cccc(c4)Nc4ncc(F)c(n4)N[C@@H]1[C@@H]3C2`: the ring closure, yield of all isomers (from NC(=O)[C@H]1[C@@H]2C[C@@H](CNC(=O)Cc3cccc(N)c3)[C@@H](C2)[C@H]1Nc1nc(Cl)ncc1F, snar bond, 2 steps) was 7%.
For `NC(=O)[C@H]1[C@@H]2CC3CNCCc4cccc(c4)Nc4ncc(F)c(n4)N[C@@H]1[C@@H]3C2` (stereo partly drawn), for the setting “from NC(=O)[C@H]1[C@@H]2CC(CNCCc3cccc(N)c3)[C@@H](C2)[C@H]1Nc1nc(Cl)ncc1F, snar bond”, the ring closure, yield of all isomers is 18.5%. Further, the IC50 in series [1] fell in the range of 101 to 1000 nM; in series [2], 1 to 100 nM; in series [3], 101 to 1000 nM; in series [4], 101 to 1000 nM. In addition, the “Kinase Inhibition Profile (not incl. Aurora) # kinases hit/# kinases tested” value in series [5] is 1/53 at 1 μM.
As to `NC(=O)[C@H]1[C@@H]2C[C@H]3CNS(=O)(=O)Cc4cccc(c4)Nc4ncc(F)c(n4)N[C@@H]1[C@@H]3C2`, where the note is “from NC(=O)[C@H]1[C@@H]2C[C@@H](CNS(=O)(=O)Cc3cccc(N)c3)[C@@H](C2)[C@H]1Nc1nc(Cl)ncc1F, snar bond”, the ring closure, yield of all isomers worked out at 6.3%. In addition, the IC50 is 1 to 100 nM in series [1], 101 to 1000 nM in series [2], 1000 to 6250 nM in series [3] and 1000 to 6250 nM in series [4].
Under “from NC(=O)[C@H]1[C@@H]2CC(CNC(=O)Nc3cccc(N)c3)[C@@H](C2)[C@H]1Nc1nc(Cl)ncc1F, snar bond”, `NC(=O)[C@H]1[C@@H]2CC3CNC(=O)Nc4cccc(c4)Nc4ncc(F)c(n4)N[C@@H]1[C@@H]3C2` (stereo partly drawn) showed a ring closure, yield of all isomers of 15.1%. Moreover, the IC50 was 101 to 1000 nM in series [1], 101 to 1000 nM in series [2], above 6250 nM in series [3] and 1000 to 6250 nM in series [4]. For the same compound, in series [5], the “Kinase Inhibition Profile (not incl. Aurora) # kinases hit/# kinases tested” value was 1/76 at 1 μM.
With `NC(=O)[C@H]1[C@@H]2C[C@H]3CNCC(=O)Nc4cccc(c4)Nc4ncc(F)c(n4)N[C@@H]1[C@@H]3C2`, the ring closure, yield of all isomers (from NC(=O)[C@H]1[C@@H]2C[C@@H](CNCC(=O)Nc3cccc(N)c3)[C@@H](C2)[C@H]1Nc1nc(Cl)ncc1F, snar bond) was determined as 44%. Also, the IC50 in series [1] and in series [2] was 101 to 1000 nM each time.
The compound `CC(=O)N1Cc2cccc(c2)Nc2ncc(F)c(n2)N[C@@H]2[C@@H]3C[C@@H](C[C@H]3C1)[C@@H]2C(N)=O` gave a ring closure, yield of all isomers (from CC(=O)N(Cc1cccc(N)c1)C[C@@H]1C[C@@H]2C[C@H]1[C@@H](Nc1nc(Cl)ncc1F)[C@H]2C(N)=O, snar bond) of 45.4%.
Take `NC(=O)[C@H]1[C@H]2C[C@H]3[C@H]1Nc1nc(ncc1F)Nc1cccc(c1)CNC(=O)N[C@@H]3C2`: the ring closure, yield of all isomers (from NC(=O)[C@H]1[C@H]2C[C@@H]([C@H]1Nc1nc(Cl)ncc1F)[C@H](NC(=O)NCc1cccc(N)c1)C2, snar bond) amounted to 36.7%. The IC50 in series [1] fell in the range of 1 to 100 nM; in series [2], 1 to 100 nM; in series [3], 1000 to 6250 nM; in series [4], 1000 to 6250 nM.
Compound `NC(=O)[C@H]1[C@@H]2C[C@H]3CNCC(O)c4cccc(c4)Nc4ncc(F)c(n4)N[C@@H]1[C@@H]3C2` (stereo partly drawn) gave a ring closure, yield of all isomers (from NC(=O)[C@H]1[C@@H]2C[C@@H](CNCC(O)c3cccc(N)c3)[C@@H](C2)[C@H]1Nc1nc(Cl)ncc1F, snar bond, HCl) of 43.9%. The IC50 in series [1] fell in the range of 101 to 1000 nM.
In turn, `CN1CCN(c2cc3cc(c2)S(=O)(=O)NC[C@@H]2C[C@@H]4C[C@H]2[C@@H](Nc2nc(ncc2F)N3)[C@H]4C(N)=O)CC1` yielded a ring closure, yield of all isomers (from CN1CCN(c2cc(N)cc(S(=O)(=O)NC[C@@H]3C[C@@H]4C[C@H]3[C@@H](Nc3nc(Cl)ncc3F)[C@H]4C(N)=O)c2)CC1, snar bond, HCl) of 6.8%. The IC50 in series [1] lay within 1 to 100 nM.
Where the note is “from NC(=O)[C@H]1[C@@H]2C[C@@H](CNC(=O)Cn3cnc([N+](=O)[O-])c3)[C@@H](C2)[C@H]1Nc1nc(Cl)ncc1F, snar bond, 2 steps”, `NC(=O)[C@H]1[C@@H]2C[C@H]3CNC(=O)Cn4cnc(c4)Nc4ncc(F)c(n4)N[C@@H]1[C@@H]3C2` displayed a ring closure, yield of all isomers of 46.6%. Also, the IC50 in series [1] and in series [2] was 1000 to 6250 nM throughout.
For the setting “from C=CCOc1cccc(Nc2ncc(F)c(NC3CCCC(OCC=C)C3)n2)c1, rcm bond, Grubbs 2nd generation, dichloromethane, 2.0 mM, 40.0 °C, 16.0 h”, `Fc1cnc2nc1NC1CCCC(C1)OCC=CCOc1cccc(c1)N2` (stereo not drawn) registered a ring closure, yield of all isomers of 1.5%.
As to `NC(=O)[C@H]1[C@H]2C[C@H]3[C@H]1Nc1nc(ncc1F)Nc1cccc(c1)COC(=O)N[C@@H]3C2`, the ring closure, yield of all isomers (from NC(=O)[C@H]1[C@H]2C[C@@H]([C@H]1Nc1nc(Cl)ncc1F)[C@H](NC(=O)OCc1cccc(N)c1)C2, snar bond) is 3.3%. The IC50 in series [1] was 1 to 100 nM; in series [2] it was 1 to 100 nM; in series [3] it was 1000 to 6250 nM; in series [4], 1000 to 6250 nM.
`CN1Cc2cccc(c2)Nc2ncc(F)c(n2)N[C@@H]2[C@@H]3C[C@@H](C[C@H]3C1)[C@@H]2C(N)=O` had a ring closure, yield of all isomers (from CN(Cc1cccc(N)c1)C[C@@H]1C[C@@H]2C[C@H]1[C@@H](Nc1nc(Cl)ncc1F)[C@H]2C(N)=O, snar bond) of 5.5%. Moreover, the IC50 fell in the range of 1000 to 6250 nM in series [1] and 1 to 100 nM in series [2].
Regarding `NC(=O)[C@H]1[C@@H]2CC3CNC(=O)c4cccc(c4)Nc4ncc(F)c(n4)N[C@@H]1[C@@H]3C2` (stereo partly drawn), the ring closure, yield of all isomers (from CC(C)(C)OC(=O)Nc1cccc(C(=O)NCC2C[C@@H]3C[C@H]2[C@@H](Nc2nc(Cl)ncc2F)[C@H]3C(N)=O)c1, snar bond, TFA, 2 steps) is 1.8%.
For the compound `Fc1cnc2nc1NC1CCC(CC1)OCC=CCOc1cccc(c1)N2`, the ring closure, yield of all isomers (from C=CCOc1cccc(Nc2ncc(F)c(NC3CCC(OCC=C)CC3)n2)c1, rcm bond, Grubbs 2nd generation, then Hoveyda-Grubbs 2nd generation, dichloromethane, 2.0 mM, 40.0 °C, 76.0 h) was 2.7% and 5.9%.
In the case of `CN1CCN(c2ccc3cc2COC(=O)N[C@@H]2C[C@@H]4C[C@H]2[C@@H](Nc2nc(ncc2F)N3)[C@H]4C(N)=O)CC1`, the ring closure, yield of all isomers (from CN1CCN(c2ccc(N)cc2COC(=O)N[C@@H]2C[C@@H]3C[C@H]2[C@@H](Nc2nc(Cl)ncc2F)[C@H]3C(N)=O)CC1, snar bond, HCl) was determined as 8.7%. The IC50 in series [1] lay in the range of 1 to 100 nM; in series [2], 1 to 100 nM; in series [3] it was 101 to 1000 nM; in series [4], 101 to 1000 nM.
For `CN1CCN(c2ccc3cc2CNC[C@@H]2C[C@@H]4C[C@H]2[C@@H](Nc2nc(ncc2F)N3)[C@H]4C(N)=O)CC1`, the ring closure, yield of all isomers (from CN1CCN(c2ccc(N)cc2CNC[C@@H]2C[C@@H]3C[C@H]2[C@@H](Nc2nc(Cl)ncc2F)[C@H]3C(N)=O)CC1, snar bond, HCl) was determined as 24.9%. For the same compound, the IC50 lay within 101 to 1000 nM in series [1] and 1 to 100 nM in series [2].
`NC(=O)[C@H]1[C@H]2C[C@H]3[C@H]1Nc1nc(ncc1F)Nc1cccc(c1)CC(=O)N[C@@H]3C2`: the ring closure, yield of all isomers (from NC(=O)[C@H]1[C@H]2C[C@@H]([C@H]1Nc1nc(Cl)ncc1F)[C@H](NC(=O)Cc1cccc(N)c1)C2, snar bond) was determined as 8.1%. Besides, the 50% inhibitory concentration (IC50) in series [1] and in series [2] was 1 to 100 nM throughout.
`NC(=O)[C@H]1[C@@H]2CC3CNS(=O)(=O)c4cccc(c4)Nc4ncc(F)c(n4)N[C@@H]1[C@@H]3C2` (stereo partly drawn) displayed a ring closure, yield of all isomers (from NC(=O)[C@H]1[C@@H]2CC(CNS(=O)(=O)c3cccc(N)c3)[C@@H](C2)[C@H]1Nc1nc(Cl)ncc1F, snar bond) of 8.5%.
